Data set [1] can be described thus: Cytotoxicity against human HeLa cells after 72 hrs by crystal violet biomass reduction assay. The format is cell-based.
Data set [2] deals with Mycobacterium tuberculosis. Briefly: Antimycobacterial activity against Mycobacterium tuberculosis H37Rv ATCC 27294 assessed as reduction in bacterial growth incubated for 7 days under GAS medium by MABA method. The format is functional. As to conditions: H37Rv ATCC 27294, 168 h. In general terms: Resazurin is reduced to fluorescent resorufin, in cell work by metabolically active cells.

Data set [3] can be described thus: Cytotoxicity against human MCF7 cells after 72 hrs by crystal violet biomass reduction assay. It counts as cell-based.
The test system of data set [4] is Acinetobacter baumannii. Briefly: Antibacterial activity against Acinetobacter baumannii ATCC 17961 assessed as reduction in bacterial growth incubated for 18 to 20 hrs by broth microdilution method. The format is functional. (In general: Dilution methods test growth across graded concentrations, often in twofold steps.)
In data set [5] the test system is Mycobacterium kansasii. Put plainly: Antimycobacterial activity against Mycobacterium kansasii ATCC 12478 assessed as reduction in bacterial growth incubated for 6 days by MABA method. The format is functional. The conditions noted are these: ATCC 12478, 144 h.
Data set [6] relates to Pseudomonas aeruginosa. Put plainly: Antibacterial activity against Pseudomonas aeruginosa KW799/61 assessed as reduction in bacterial growth incubated for 18 to 20 hrs by broth microdilution method. It counts as functional.
In data set [7] the test system is Mycolicibacterium smegmatis. Briefly: Antimycobacterial activity against Mycobacterium smegmatis str. MC2 155 assessed as reduction in bacterial growth incubated for 18 to 20 hrs by broth microdilution method. The format is functional.
Data set [8] deals with Mycolicibacterium aurum. Briefly: Antimycobacterial activity against Mycobacterium aurum SB66 assessed as reduction in bacterial growth incubated for 18 to 20 hrs by broth microdilution method. The format is functional.
For data set [9], the system named is Mycobacterium marinum. Put plainly: Antimycobacterial activity against Mycobacterium marinum ATCC 927 assessed as reduction in bacterial growth incubated for 5 days by MABA method. The format is functional. As to conditions: ATCC 927, 120 h.
Data set [10] concerns Staphylococcus aureus. Briefly: Antibacterial activity against Staphylococcus aureus SG511 assessed as reduction in bacterial growth incubated for 18 to 20 hrs by broth microdilution method. It counts as functional.
For data set [11], the system named is Micrococcus luteus. Put plainly: Antibacterial activity against Micrococcus luteus ATCC 10240 assessed as reduction in bacterial growth incubated for 18 to 20 hrs by broth microdilution method. It counts as functional.
Data set [12] concerns Mycobacterium tuberculosis. Briefly: Antimycobacterial activity against Mycobacterium tuberculosis H37Rv ATCC 27294 assessed as reduction in bacterial growth incubated for 7 days under 7H12 medium by MABA method. The format is functional. As to conditions: H37Rv ATCC 27294, 168 h.
Data set [13] can be described thus: Cytotoxicity against human PC3 cells after 72 hrs by crystal violet biomass reduction assay. It counts as cell-based, PC-3.
Data set [14] relates to Mycolicibacterium vaccae. Put plainly: Antimycobacterial activity against Mycobacterium vaccae IMET10670 assessed as reduction in bacterial growth incubated for 18 to 20 hrs by broth microdilution method. The format is functional.

≈ marks a conversion by molar mass, not a printed value.

Results on 6 molecules are retold here after ChEMBL document CHEMBL3393049, “Syntheses and Antituberculosis Activity of 1,3-Benzothiazinone Sulfoxide and Sulfone Derived from BTZ043” (ACS Med Chem Lett, 2015).

On to `C[C@H]1COC2(CCN(c3nc(=O)c4cc(C(F)(F)F)cc([N+](=O)[O-])c4[s+]3[O-])CC2)O1` (some centres not stated), for which the CC50 (as a rule, the concentration that lowers cell viability or growth by half) at 72 h in data set [1] is > 20 µM; in [3], > 20 µM; in data set [13], 15 µM. For the same molecule, the MIC (commonly the lowest concentration that inhibits growth of the organism) is < 0.02 µM in data set [2]; > 200 µM in data set [4]; 0.3 µM (≈ 0.134 µg/mL) in [5]; > 200 µM in data set [6]; < 0.013 µM in [7]; 3.13 µM (≈ 1.4 µg/mL) in data set [8]. Also, the MIC in [9] is 0.19 µM (≈ 0.085 µg/mL); in data set [10] (read-out: MIC) it was 12.5 µM (≈ 5.59 µg/mL); in [11], 50 µM (≈ 22.4 µg/mL); in data set [12], 0.06 µM (≈ 0.0268 µg/mL); in data set [14], < 0.013 µM.
For the molecule `C[C@H]1COC2(CCN(C3=NC(=O)c4cc(C(F)(F)F)cc([N+](=O)[O-])c4S3(=O)=O)CC2)O1`, the cytotoxic concentration (CC50) at 72 h in [1], in [3] and in data set [13] was > 20 µM each time. The MIC in data set [2] was 0.51 µM (≈ 0.236 µg/mL); in data set [4] it was > 200 µM; in data set [5], > 1 µM; in data set [6], > 200 µM; in data set [7] it was > 0.5 µM; in data set [8], > 200 µM. Also, the MIC was > 1 µM in [9]; 200 µM (≈ 92.7 µg/mL) in data set [10]; > 200 µM in data set [11]; 0.48 µM (≈ 0.222 µg/mL) in data set [12]; < 0.013 µM in data set [14].
Consider `C[C@H]1COC2(CCN(c3nc(=O)c4cc(C(F)(F)F)cc([N+](=O)[O-])c4s3)CC2)O1` [BTZ-043], for which the CC50 at 72 h in [1], in data set [3] and in [13] was > 20 µM throughout. The MIC in data set [2] was < 0.02 µM; in data set [4], > 200 µM; in data set [5] it was < 0.02 µM; in data set [6] it was > 200 µM; in data set [7], 0.002 µM (≈ 0.000863 µg/mL); in data set [8], > 200 µM. In addition, the MIC in data set [9] was 0.037 µM (≈ 0.016 µg/mL); in data set [10], > 200 µM; in data set [11], > 200 µM; in [12] it was < 0.02 µM; in data set [14] it was 0.002 µM (≈ 0.000863 µg/mL).
In the case of `O=C(O)c1cn(C2CC2)c2cc(N3CCNCC3)c(F)cc2c1=O` [CIPROFLOXACIN], the MIC in data set [4] came out at 0.156 µM (≈ 0.0517 µg/mL); in data set [6], 0.156 µM (≈ 0.0517 µg/mL); in [7], 0.32 µM (≈ 0.106 µg/mL); in data set [8], 0.02 µM (≈ 0.00663 µg/mL); in data set [10] (read-out: MIC) it was 0.32 µM (≈ 0.106 µg/mL); in [11], 1.25 µM (≈ 0.414 µg/mL). For the same molecule, the MIC in data set [14] amounted to 0.32 µM (≈ 0.106 µg/mL).
Turning to `NNC(=O)c1ccncc1` [ISONIAZID], the MIC in data set [2] was 0.03 µM (≈ 0.00411 µg/mL); in data set [5] it was 3.86 µM (≈ 0.529 µg/mL); in data set [9] it was > 8 µM; in data set [12], 0.1 µM (≈ 0.0137 µg/mL).
Taken in the same sequence, the figures for `CO[C@H]1/C=C/O[C@@]2(C)Oc3c(C)c(O)c4c(O)c(c(/C=N/N5CCN(C)CC5)c(O)c4c3C2=O)NC(=O)/C(C)=C\C=C\[C@H](C)[C@H](O)[C@@H](C)[C@@H](O)[C@@H](C)[C@H](OC(C)=O)[C@@H]1C` [RIFAMPIN] were 0.04 µM (≈ 0.0329 µg/mL), 0.1 µM (≈ 0.0823 µg/mL), 0.23 µM (≈ 0.189 µg/mL) and 0.05 µM (≈ 0.0411 µg/mL).
